Laboratory results from patent US9605013B2, “Derivatives of hemin with antibacterial and antiviral activity” (OBSCHESTVO S OGRANICHENNOI OTVETSTVENNOSTIYU …, priority 2011, dated 2017).

Columns and labels:
Assay type in all cases: cell-based
[1] = system: Herpes Simplex Virus type 2 strain G (No. VR-734 ATCC); test: Antiviral activity, virus cytopathogenic action in Vero cells; design: key: 0: CPA (cytopathogenic action) is not detected; 1: up to 25% virus-infected monolayer; from 25% to 50%; 3: from 50% to 75%; 4: from 75% to 100%; settings: 48 hours
[2] = system: Vancomycin-resistant Enterococcus faecium 569; test: Antibacterial specific activity, twofold dilutions, visual growth evaluation; settings: Vancomycin-resistant E. faecium 569; 36° C., 24 hours
Outline: (§1)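 Strains are exposed at a constant inoculum of 5×10^5 CFU/ml to serial twofold compound dilutions prepared from water or DMSO stocks. After 24 hours at 36° C., visual comparison with growth controls gives the MIC as the last dilution without growth.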

[3] = system: Staphylococcus epidermidis No. 533; test: as above; settings: S. epidermis 533; 36° C., 24 hours
Outline: as §1

Escherichia coli 4300 = test: as above; settings: E. coli 4300; 36° C., 24 hours
[4] = system: Staphylococcus aureus No. 25923 ATCC; test: as above; settings: S. aureus 25923; 36° C., 24 hours
Outline: as §1

[5] = system: Enterococcus faecalis No. 559; test: as above; settings: E. faecalis 559; 36° C., 24 hours
Outline: as §1

[6] = system: Staphylococcus aureus No. 100 KC; test: as above; settings: S. aureus 100 KC; 36° C., 24 hours
Outline: as §1

[7] = system: Staphylococcus aureus No. 5 (MRSA); test: as above; settings: St. aur No. 5 MRSA; 36° C., 24 hours
Outline: as §1

[8] = system: Staphylococcus aureus No. 3797 (MRSA); test: as above; settings: St. aur No. 3797 MRSA; 36° C., 24 hours
Outline: as §1

[9] = HSV-2, virus dose 1, concentration 0.1 μM
[10] = HSV-2, virus dose 1, concentration 1 μM
[11] = HSV-2, virus dose 1, concentration 10 μM
[12] = HSV-2, virus dose 10, concentration 0.1 μM
[13] = HSV-2, virus dose 10, concentration 1 μM
[14] = HSV-2, virus dose 10, concentration 10 μM
[15] = HSV-2, virus dose 100, concentration 0.1 μM
[16] = HSV-2, virus dose 100, concentration 1 μM
[17] = HSV-2, virus dose 100, concentration 10 μM

Compound	manifestation of the virus CPA [1, 9]	manifestation of the virus CPA [1, 10]	manifestation of the virus CPA [1, 11]	manifestation of the virus CPA [1, 12]	manifestation of the virus CPA [1, 13]	manifestation of the virus CPA [1, 14]	manifestation of the virus CPA [1, 15]	manifestation of the virus CPA [1, 16]	manifestation of the virus CPA [1, 17]	MIC [2]	MIC [3]	MIC (Escherichia coli 4300)	MIC [4]	MIC [5]	MIC [6]	MIC [7]	MIC [8]
6,7-bis-[(Diamide N^α-L-Arginyl)-L-glutamyl]-Protohemin (IX)	1 (up to 25% virus-infected monolayer)	0.5 scores	0^1	2 (from 25% to 50%)	2 (from 25% to 50%)	1^1 (up to 25% virus-infected monolayer)	3 (from 50% to 75%)	3 (from 50% to 75%)	3 (from 50% to 75%)	6.25 µM	0.78 µM	16.6 µM	1.56 µM	3.12 µM	0.78 µM		
6,7-bis-(Amide N^α-Glycyl)-Protohemin (IX) [IV]	1 (up to 25% virus-infected monolayer)	0.5 scores	0^1	2 (from 25% to 50%)	2 (from 25% to 50%)	0^1	3 (from 50% to 75%)	3 (from 50% to 75%)	0^1	50 µM	1.56 µM	>50.0 µM	0.39 µM	0.39 µM	0.39 µM	3.12 µM	3.12 µM
C=CC1=C(C)c2cc3[n-]c(cc4[n-]c(cc5nc(cc1n2)C(C)=C5C=C)c(C)c4CCC(=O)N[C@@H](CCCNC(=N)N)C(N)=O)c(CCC(=O)N[C@@H](CCCNC(=N)N)C(N)=O)c3C.[Cl-].[Fe+3] [II, 6,7-bis-(Amide N^α-Arginyl)-Protohemin (IX)]	1 (up to 25% virus-infected monolayer)	0.5 scores	0^1	1.5 scores	2 (from 25% to 50%)	1^1 (up to 25% virus-infected monolayer)	3 (from 50% to 75%)	3 (from 50% to 75%)	3 (from 50% to 75%)	3.12 µM	0.39 µM	41.6 µM	1.04 µM	1.3 µM	2.6 µM	41 µM	50 µM
C=CC1=C(C)c2cc3[n-]c(cc4[n-]c(cc5nc(cc1n2)C(C)=C5C=C)c(C)c4CCC(=O)N[C@@H](CO)C(=O)O)c(CCC(=O)N[C@@H](CO)C(=O)O)c3C.[Cl-].[Fe+3] [VI, 6,7-bis-(N^α-Seryl]-Protohemin (IX)]	1 (up to 25% virus-infected monolayer)	1 (up to 25% virus-infected monolayer)	0^1	2 (from 25% to 50%)	2 (from 25% to 50%)	0^1	3 (from 50% to 75%)	3 (from 50% to 75%)	2^1 (from 25% to 50%)	>50.0 µM	3.12 µM	>50.0 µM	12.5 µM	>50.0 µM	5.21 µM	0.78 µM	0.78 µM
C=CC1=C(C)c2cc3[n-]c(cc4[n-]c(cc5nc(cc1n2)C(C)=C5C=C)c(C)c4CCC(=O)N[C@@H](CO)C(N)=O)c(CCC(=O)N[C@@H](CO)C(N)=O)c3C.[Cl-].[Fe+3] [V, 6,7-bis-(Amide N^α-Seryl)-Protohemin (IX)]	1 (up to 25% virus-infected monolayer)	0.5 scores	0^1	2 (from 25% to 50%)	2 (from 25% to 50%)	0^1	3 (from 50% to 75%)	3 (from 50% to 75%)	2^1 (from 25% to 50%)	25 µM	1.56 µM	>50.0 µM	0.78 µM	25 µM	0.52 µM	1.56 µM	1.56 µM
